# Data taken from ChEMBL document CHEMBL1159201, “Microbial biotransformation of veratramine” (J Nat Prod, 1998).
# What was measured:
# [1] = system: Vero; assay: Cytotoxicity against african green monkey Vero cells; assay type: cell-based; conditions: chlorocebus sabaeus
# [2] = system: Plasmodium falciparum; assay: Antiplasmodial activity against Plasmodium falciparum W2; assay type: functional, organism-based
Compound,Activity [1],IC50 [2]
Cc1c([C@H](C)[C@@H]2NC[C@@H](C)C[C@H]2O)ccc2c1C[C@H]1[C@H]2CC[C@H]2CC(=O)CC[C@@]21C [DIHYDROVERATRAM-3-ONE],Non-toxic,
Cc1c([C@H](C)[C@@H]2NC[C@@H](C)C[C@H]2O)ccc2c1C[C@H]1[C@H]2CC=C2C[C@@H](O)CC[C@@]21C [VERATRAMINE],Non-toxic,
Cc1c([C@H](C)[C@@H]2NC[C@@H](C)C[C@H]2O)ccc2c1C[C@H]1[C@H]2CCC2=CC(=O)C=C[C@@]21C,Non-toxic,3.6 µg/mL
Cc1c([C@H](C)[C@@H]2NC[C@@H](C)C[C@H]2O)ccc2c1C[C@H]1[C@H]2CCC2=CC(=O)CC[C@@]21C,Non-toxic,
